Experimental findings from patent publication US10766912B2 (priority 2017, dated 2020) are described below.

SMILES strings stand for the structures.

Experiment [1] concerns HCV GT1b wild-type replicon. As to the kind of experiment: Assay Example 1: activity against HCV GT1b wild-type replicon (luciferase, transient transfection). Type of experiment: cell-based. The following applies: Hepatitis C virus, 72 h, Huh 7 cells, 3 days. Here is the method: Cells: Huh 7 cell line and HCV GT1b/3a and GT1b/6a NS5A chimeric replicons and GT1b and GT1a wild-type replicon RNA.
Treatment of Compound: According to the assay final concentrations of the compounds in Table 2, DMSO stock solutions of the compounds were diluted and then added to a 96-well assay plate. The final concentration of DMSO was 0.5%.
The preparation of cells: After replicon plasmid DNA was linearized with a corresponding restriction enzyme, the DNA was transcribed into RNA by using T7RNA polymerase. Replicon RNA prepared by transcription in vitro was transfected into Huh-7 cells by electroporation. Transfected cells were seeded at a density of 10,000 cells per well into the 96-well assay plate containing the diluted compounds, and then the plate was placed in a 37° C. incubator with 5% CO2 and cultured for 3 days.
Drug activity assay: Luminescence signal value (RLU) was detected with Envision within 15 minutes using the luciferase assay reagent Britelite plus, and the original data (RLU) was used for the calculation of the activity of the compounds.
The activity of the compounds was calculated by using the equation below: Inhibition %=(ZPE−CPD)/(ZPE−HPE)×100%*
The cell viability percentages (Viability %) and the inhibition percentages (Inhibition %) were imported into GraphPad Prism software, respectively, and curves were fitted by using nonlinear regression method to obtain the corresponding curves of the compounds, and the cytotoxicity (CC50) thereof and inhibitory activity (EC50) values against the HCV replicon thereof.
On the technique in general: Replicon systems follow genome replication, usually without infectious particles.

Experiment [2] relates to hepatitis C virus HCVcc (GT2a, JFH-1). As to the kind of experiment: Assay Example 3: activity against infective hepatitis C virus HCVcc (GT2a, JFH-1). Format: cell-based. The conditions noted are these: Huh-7.5.1, 72 h, read-out: EC50 Value GT2a HCVcc. Here is the method: Cells: Huh7.5.1 cells and hepatitis C virus HCVcc (GT2a, JFH-1) infection system.
Treatment of Compound: According to the assay final concentrations of the compounds in Table 6, DMSO stock solutions of the compounds were diluted and then added to a 96-well assay plate. The final concentration of DMSO was 0.5%.
Viral infection: Huh7.5.1 cells were seeded in a 96-well cell culture plate, and the cells were cultured overnight at 37° C. in an incubator with 5% CO2 for later use. The compound and the HCVcc virus solution (MOI=0.1) were simultaneously added to the cells, and the virus infection was cultured for 3 days. Parallel cytotoxicity assay was identical to the method for the inhibition of the virus but without viral infection.
Drug activity assay: The activity of hRLuc was detected by the addition of Renilla luciferase assay reagent. The original data (RLU) was used for the calculation of the activity of the compounds.
The activity of the compounds was calculated by using the equation below: Inhibition %=(CPD−VC)/(CC−VC)×100%*
The cell viability percentages (Cell Viability %) and the compound activity percentages (Inhibition %) were imported into GraphPad Prism software, respectively, and curves were fitted by using nonlinear regression method to obtain the corresponding curves of the compounds, and the cytotoxicity (CC50) thereof and inhibitory activity (EC50) values against the HCV replicon thereof.

The term EC50 denotes the concentration that produces a half-maximal response.

As for `COC(=O)N[C@H](C(=O)N1CCC[C@H]1C(=O)Nc1ccc([C@H]2CC[C@H](c3ccc4nc([C@@H]5CCCN5C(=O)[C@@H](NC(=O)OC)[C@@H](C)OC)[nH]c4c3)N2c2cc(F)c(N3CC[Si](C)(C)CC3)c(F)c2)cc1)[C@@H](C)OC` [Compound 6b], the values for the EC50 in experiment [1] and in experiment [2] were 6.7 pM and 1.37 pM, respectively.
